Results reported in US20090069244A1, “Mutants of lactoferrin” (AM-Pharma B.V., priority 2007, published 2009).

These substances were tested on Methicillin Resistant Staphylococcus aureus (MRSA), Escherichia coli and/or Candida albicans (assay: Minimal inhibitory concentration (MIC) assay, microdilution). Settings: MIC not more than 1 dilution from the reference peptide (Pep001 or MD012) counts as equal activity.
Type: cell-based
Description: To compare antimicrobial activity of the mutants, the inventors made use of the minimal inhibitory concentration (MIC) assay, extensively described in the literature and which has become a world wide standardized test for, e.g., determining susceptibility of strains towards antibiotics (reference “National Committee for Clinical Laboratory Standards: Performance standards for antimicrobial susceptibility testing; fourteenth informational supplement. M100-S14, Volume 24, Wayne, Pa.; 2004.”). The MIC assay is a fast, reliable assay that is used throughout the world in medical microbiology divisions to test e.g., antibiotic response of clinical isolates to monitor antibiotic therapy. MIC values represent the lowest concentration of antibiotic or antifungal that inhibits >90% of growth of the micro-organism. In hospitals MIC values are also used to determine strength of antibiotic therapy where one of the pharmacokinetic parameters is expressed as “hours over MIC”. The inventors therefore feel that MIC values, in contrast to e.g., killing assays, more closely relate to clinical efficacy of the drug and predict more correctly the success of a drug in the clinic.
Antimicrobial properties of the different peptides against a gram negative bacteria (Escherichia coli ATCC 035), a gram positive bacteria (Methicillin Resistant Staphylococcus aureus (MRSA) ATCC 2141) both obtained from the American Type Culture Collection (ATCC, Manassas (VA), USA) and Yeast (Candia Albicans Y01-19; clinical isolate of LUMC, Leiden, the Netherlands) were used for the MIC determination.
Minimal inhibitory concentrations (MICs) were determined by microdilution method according to CLSI guidelines using RPMI1640 medium diluted 1:4 in […] sterile filtered MilliQ and an bacterial inoculum of 5×10^5 CFU/ml. Plates were read after 20-24 h incubation at 35° C. in ambient air. MICs were recorded as the lowest concentration that inhibited visible growth.
Both tables show the MIC values of the various peptides for Methicillin Resistant Staphylococcus aureus (MRSA), Escherichia coli and/or Candida albicans. […]

Antimicrobial activity (MIC) compared with the reference peptide, acceptable antimicrobial activity:
RRRRQWC [RRRRQWC (SEQ ID NO:141)], RRRRSWC [RRRRSWC (SEQ ID NO:142)], RRRRSVC [RRRRSVC (SEQ ID NO:143)]
